The source of these data is patent US8187822B2, “Methods to identify modulators” (Givaudan S.A., priority 2007, dated 2012).

One assay deals with T1, TAS2R44 (Homo sapiens, UniProt P59538, L162M).
T1 construct: RSS tag (first 45 amino acids of rat somatostatin receptor subtype 3, plus EcoRI site) (N); expressed in transfected cells
T1 sequence (P59538 with tags, fused parts or gaps L162M): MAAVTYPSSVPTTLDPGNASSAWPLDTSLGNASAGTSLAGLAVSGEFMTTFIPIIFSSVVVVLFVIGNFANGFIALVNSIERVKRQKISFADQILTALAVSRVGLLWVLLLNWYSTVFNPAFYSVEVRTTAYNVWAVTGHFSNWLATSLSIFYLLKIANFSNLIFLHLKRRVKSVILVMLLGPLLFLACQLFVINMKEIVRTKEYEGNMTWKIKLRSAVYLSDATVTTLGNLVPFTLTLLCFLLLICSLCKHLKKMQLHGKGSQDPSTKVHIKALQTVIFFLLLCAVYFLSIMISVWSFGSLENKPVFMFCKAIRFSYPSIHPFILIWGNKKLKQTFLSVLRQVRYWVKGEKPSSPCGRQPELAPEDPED
Briefly: Fluo-4 calcium assay, HEK293T cells expressing Gα16-gustducin44 and TAS2R44. Type of assay: cell-based. Particulars: for TAS2R44 ΔF/F0: 0.02% DMSO; for Sucralose ΔF/F0 / Sucralose + test cpd A ΔF/F0: TAS2R44 expressing cells; for Sucralose + test cpd A ΔF/F0: 25 μM test cpd A. The protocol:
Cell lines that stably expresses a SABR (TAS2R44, TAS2R1, TAS2R10) was generated by transfecting pcDNA3.1Zeo-SABR into HEK293T/Gα16-gustducin 44 cells (both formed as described in example 1). The host cell line HEK-293T is commercially available from the American Tissue Culture Collection (ATCC), ATCC®# CRL-11268.
The expression of TAS2R44 was evaluated by testing for the presence of a functional response to the known TAS2R44 agonist saccharin (as described in WO 2004/029087) in addition to sucralose, which was determined via automated calcium imaging on the FLIPR-TETRA™ (Molecular Devices, Sunnyvale, Calif., US) as described in example 3. One clone was selected resulting in the HEK293T/Gα16-gustducin 44/TAS2R44 cell line.
Fluo-4AM (Invitrogen, Carlsbad, Calif., US) is a fluorescent indicator of intracellular calcium dynamics (change in concentration) and allows monitoring changes in the calcium concentration, particularly an increase in response to receptor activation occurring after agonist exposure.
(§1) At day 0, the HEK293T cell line expressing Gα16-gustducin44 and a TAS2R bitter taste receptor formed as described in examples 2b or 2c was seeded in antibiotic-free growth medium (standard DMEM with 10% (v/v) heat-inactivated fetal bovine serum, 2 mM L-glutamine[…]) into black wall/clear bottom 96-well plates, coated with poly(ethylenimine) (0.005% v/v) at a concentration of 15,000 cells per well and incubated for 48 hours in humidified atmosphere (37° C., 5% CO2).
(§2) At the time of the assay, the growth medium was discarded and the cells were in humidified atmosphere (37° C., 5% CO2) for 1 hour with 50 μl of loading buffer consisting of 1.5 μM Fluo-4 AM and […] probenicid (Sigma-Aldrich, St. Louis, Mo., US) in DMEM.
(§3) Afterwards, the 96-well plate was washed 5 times with 100 μl of assay buffer (130 mM NaCl, 5 mM KCl, 10 mM HEPES, 2 mM CaCl2, and 5 mM dextrose, pH 7.4) per well, using an automated plate washer (BioTek). The plate was further incubated for 30 minutes at room temperature in the dark to allow for complete de-esterification of the Fluo-4. Afterwards the plate was washed 5 times with 100 μl of assay buffer per well, and reconstituted with 100 μl of assay buffer per well.
(§4) For assay reading, the plate was placed in a Fluorometric Imaging Plate Reader (FLIPR) (FLIPR-TETRA™, Molecular Devices, Sunnyvale, Calif., US), and receptor activation was initiated by addition of 100 μl of a twofold concentrated agonist stock solution (to give the desired agonist end concentration when added to the 100 microliter assay buffer volume), which was prepared in assay buffer.
(§5) Fluorescence was continuously monitored for 20 seconds to give a signal baseline (averaged to give F0) prior to agonist addition and for 120 seconds after agonist addition. The change in signal divided by F0 gives ΔF/F0 indicated in the table, with ΔF being the maximum signal occurring within the 120 seconds minus the minimum signal (occurring within the 120 seconds after agonist addition.
All data was collected from at least two independent experiments each carried out in triplicate.
A concentration-response analysis was performed and EC50 values were calculated by nonlinear regression using the function f(x)=(a−d)/(1+(x/C)^nh)+d; with a=minimum signal, d=maximum signal, nh=hill coefficient, C=EC50, and x=agonist concentration. EC50 is the molar concentration of an agonist which produces 50% of the maximum possible effective response for that agonist.
The obtained calcium signals were corrected for the response of cells expressing only the G Protein α subunit (Gα16-gustducin44) and normalized to the fluorescence of cells prior to the stimulus using ΔF/F0 (Fmax−Fmin/F0). […]

Assay [1] has as its system cells expressing only Gα16gustducin44 but no TAS2 receptor. Briefly: Fluo-4 calcium assay, negative control cells without bitter receptor. Type of assay: cell-based. Particulars: for Neg. Control ΔF/F0: 0.02% DMSO. As for the experimental part: HEK293T/Gα16-gustducin 44 cells were used; they are formed as described in WO 2004/055048. The host cell line HEK-293T is commercially available from the American Tissue Culture Collection (ATCC), ATCC®# CRL-11268
as §1, §2, §3, §4, §5
The obtained calcium signals were corrected for the response of cells expressing only the G Protein α subunit (Gα16-gustducin44) and normalized to the fluorescence of cells prior to the stimulus using ΔF/F0 (Fmax−Fmin/F0).
To confirm that the cell line formed in example 2c stably expresses the bitter taste receptor TAS2R44, a concentration-response curve for saccharin, a known agonist of TAS2R44, was generated. […] The standard deviation (+/−STD) is also indicated.
As a negative control to determine unspecific signals, each of the applied concentrations of sucralose was applied to cells expressing only Gα16gustducin44.
As a negative control, each agonist and each agonist with the antagonist/test compound (test cpd A) is applied to cells expressing only Gal 6gustducin44 but no TAS2 receptor (see results in table 7 herein below).

As usually defined, the EC50 is the midpoint of the concentration-response curve.

Entries after “also recorded” stand apart in the source; their conditions may differ. Like-named read-outs stand apart in the source and are kept apart here.

`OC[C@H]1O[C@H](O[C@]2(CCl)O[C@H](CCl)[C@@H](O)[C@@H]2O)[C@H](O)[C@@H](O)[C@H]1Cl` [Sucralose, sucralose]: the EC50 is 16.7 ± 1.01 mM on TAS2R44 (agonist alone, stable TAS2R44 cell line (Examples 4, 5), read-out: calculated EC50 value) and 36.3 ± 5.7 mM on TAS2R44 (agonist sucralose alone, TAS2R44 (Example 9), read-out: EC50 Agonist). Besides, the “agonist activity at TAS2R44 (calcium signaling), in words” value on TAS2R44 (cells stably expressing human TAS2R44) is “significant increase in calcium signaling”. The “TAS2R44 ΔF/F0” value was 0.023 at TAS2R44 (sucralose 0.3906 mM); 0.025 at TAS2R44 (sucralose 0.7813 mM); 0.026 on TAS2R44 (sucralose 1.5625 mM); 0.043 at TAS2R44 (sucralose 3.1250 mM); 0.059 at TAS2R44 (sucralose 6.2500 mM); 0.109 at TAS2R44 (sucralose 12.5000 mM). Moreover, the entries for the “TAS2R44 ΔF/F0” value on TAS2R44 (sucralose 25.0000 mM), at TAS2R44 (sucralose 50.0000 mM) and at TAS2R44 (sucralose 100.0000 mM) were 0.197, 0.256 and 0.260, respectively. The “Sucralose ΔF/F0” value at TAS2R44 (sucralose alone 0.3906 mM (0.02% DMSO control of Example 9)) came to 0.046; at TAS2R44 (sucralose alone 0.7813 mM (0.02% DMSO control of Example 9)), 0.038; on TAS2R44 (sucralose alone 1.5625 mM (0.02% DMSO control of Example 9)), 0.042; on TAS2R44 (sucralose alone 3.1250 mM (0.02% DMSO control of Example 9)), 0.030; on TAS2R44 (sucralose alone 6.2500 mM (0.02% DMSO control of Example 9)), 0.027; at TAS2R44 (sucralose alone 12.5000 mM (0.02% DMSO control of Example 9)), 0.051. In addition, the “Sucralose ΔF/F0” value at TAS2R44 (sucralose alone 25.0000 mM (0.02% DMSO control of Example 9)) is 0.110; on TAS2R44 (sucralose alone 50.0000 mM (0.02% DMSO control of Example 9)), 0.192; on TAS2R44 (sucralose alone 100.0000 mM (0.02% DMSO control of Example 9)), 0.352; in assay [1] (sucralose alone 100.0000 mM, cells without bitter receptor (Example 9)), −0.179. In assay [1] (host cells expressing only Gα16-gustducin44), the “signal in negative control, in words” value is on record as “No significant change”. In addition, the “Neg. Control ΔF/F0” value turned out to be 0.014 in assay [1] (sucralose 0.3906 mM); 0.014 in assay [1] (sucralose 0.7813 mM); 0.017 in assay [1] (sucralose 1.5625 mM); 0.012 in assay [1] (sucralose 3.1250 mM); 0.017 in assay [1] (sucralose 6.2500 mM); 0.016 in assay [1] (sucralose 12.5000 mM). Moreover, the “Neg. Control ΔF/F0” value in assay [1] (sucralose 25.0000 mM) came to 0.016; in assay [1] (sucralose 50.0000 mM), 0.018; in assay [1] (sucralose 100.0000 mM), 0.021.
In the case of `CC1=CCC(C/C=C/C(=O)O)C1(C)C` (stereo not shown) [test cpd A, (E)-4-(2,2,3-trimethylcyclopent-3-enyl)but-2-enoic acid], the “Sucralose + test cpd A ΔF/F0” value on TAS2R44 (sucralose 0.3906 mM) was 0.011; on TAS2R44 (sucralose 0.7813 mM) it was 0.010; at TAS2R44 (sucralose 1.5625 mM) it was 0.016; at TAS2R44 (sucralose 3.1250 mM) it was 0.005; at TAS2R44 (sucralose 6.2500 mM), 0.000; on TAS2R44 (sucralose 12.5000 mM), −0.015. Also, the “Sucralose + test cpd A ΔF/F0” value is reported as −0.035 on TAS2R44 (sucralose 25.0000 mM); −0.025 on TAS2R44 (sucralose 50.0000 mM); 0.107 on TAS2R44 (sucralose 100.0000 mM); −0.175 in assay [1] (25 μM test cpd A, sucralose 100.0000 mM, cells without bitter receptor). For the same compound, at TAS2R44 (test compound at 25 μM), the “effect on the response of TAS2R44 to sucralose, in words” value is “inhibited; also recorded: inhibit the response of a SABTR to sucralose”.
